This passage reports IC50 and viability, T/C results from PubChem BioAssay AID2060489 (Molecular Pharmacology Branch, DTP, NCI, 2025).

The term IC50 denotes the point on the concentration scale where inhibition reaches its midpoint. What is called viability, T/C is the result in the treated group divided by that in the control group, in per cent.

Several values for one entry are separate records, joined by “and”; a condition that tells them apart may be missing. Identical values can stand only once.

The experiment has as its system 922993-354-T-J3-PDC complex spheroids, viability. Nature of the experiment: Anticancer human tumor 922993-354-T-J3-PDC patient-derived endometrial carcinoma cell line growth inhibition [GQUAD]. To be noted: for viability, T/C: stronger effect = lower value. The source says:
DNA G-quadruplex Stabilizer Agents in Combinations in Complex Spheroids
A high-throughput screen of multi-cell type tumor spheroids was designed to identify active combinations of DNA G-quadruplex stabilizer agents and targeted small molecules. Complex spheroids include a stromal component modeled by human endothelial cells (HUVEC) and fibroblasts modeled by human mesenchymal stem cells (MSCs). The concentration ranges selected for each drug and investigational agent were based upon clinically achievable concentrations if the clinical Cmax of the agent was known.
Compounds. The drugs and investigational agents: pidnarulex (CX-5461; NSC782164), APTO-253 (NSC789042), BRACO-19 (NSC847499), peposertib (NSC802822), ceralasertib (NSC780249), elimusertib (NSC800525), camonsertib (NSC841442), AZD-1390 (NSC803789), olaparib (NSC753686), talazoparib (NSC767125), ART-558 (NSC835418), sotorasib (NSC818433), MRTX-1133 (NSC836407), SN-38 (NSC673596), topotecan (NSC609699), etoposide (NSC141540), doxorubicin (NSC123127), gemcitabine (NSC613327), 5-fluorouracil (NSC19893), paclitaxel (NSC125973), vemurafenib (NSC761431), panobinostat (NSC761190), R-306465 (JNJ-16241199; NSC773264), adavosertib (NSC754352), TP-3654 (NSC805149), carboplatin (NSC241240), KSQ-4279 (NSC840948), and staurosporine (NSC755774) were obtained from the National Cancer Institute (NCI) Developmental Therapeutics Program Chemical Repository (34). The FDA-approved anticancer drug set is available from the NCI Developmental Therapeutics Program. […] The stock solutions were prepared in dimethyl sulfoxide (DMSO, Sigma-Aldrich, St. Louis, MO, cat. D2650) at 800-fold the tested concentration and stored at -70 degrees C prior to their use. All drugs and investigational agents were tested over a range starting from a high concentration at or near the clinical Cmax and decreasing in half-log increments. If the clinical Cmax for an agent had not been determined, the highest concentration tested was 10 microM.
2.3 Cell Culture. All cells were maintained in an incubator at 37 degrees C and 5% CO2 with 95% humidity. The PDC lines were cultured according to standard operating procedures established by the NCI PDMR. All PDCs were thawed and cultured in Matrigel-coated flasks prepared with a working solution of 1X Ham's F-12 nutrient mix, without supplementation (Invitrogen, cat. 11765054), 100 U/mL penicillin-streptomycin (Invitrogen, cat. 15140122), and 2.5% Matrigel (Corning Inc., cat. 354248) for the first three passages. The 857933-349-R-J2-PDC line was cultured in 6C/Colon 1B media, which includes advanced DMEM/F-12 (Thermo Fisher Scientific, cat. 12634028), 10 mM HEPES (Thermo Fisher Scientific, cat. 15630080), 1X GlutaMAX supplement (Thermo Fisher Scientific, cat. 35050061), 0.1 mg/mL primocin (InvivoGen, cat. ant-pm-2), 10% defined fetal bovine serum, heat inactivated (HyClone Laboratories Inc., cat. SH30070.03HI), 50% L-WRN conditioned media (ATCC, cat. CRL-3276), 1.25 mM N-Acetyl-L-cysteine (Sigma-Aldrich, cat. A9165), 10 mM nicotinamide (Sigma-Aldrich, cat. N0636), 1X B-27 supplement (Thermo Fisher Scientific, cat. 17504044), 1X N-2 supplement (Thermo Fisher Scientific, cat. 17502048), 10 microM Y-27632 dihydrochloride (Tocris Bioscience, cat. 1254), and 50 ng/mL human EGF recombinant protein (Thermo Fisher Scientific, cat. PHG0311). The 485176-168-R4-J1-PDC line was cultured in Panc media, which includes all 6C/Colon 1B media components plus 100 ng/mL human FGF-10 (Thermo Fisher Scientific, cat. 100-26), 500 nM SB-431542 (Selleckchem, cat. S1067), and gastrin (Tocris, cat. 3006).
[…]
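Further: spheroids exposed to compounds for seven days.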

Take `CC(=O)O[C@H]1C(=O)[C@@]2(C)[C@H]([C@H](OC(=O)c3ccccc3)[C@]3(O)C[C@H](OC(=O)[C@H](O)[C@@H](NC(=O)c4ccccc4)c4ccccc4)C(C)=C1C3(C)C)[C@]1(OC(C)=O)CO[C@@H]1C[C@@H]2O` + Cc1cnc(CNC(=O)c2c(=O)c3ccc(N4CCCN(C)CC4)nc3n3c2sc2ccccc23)cn1: the IC50 (curve of first compound, second compound 0.0316 µM) came out at 8750 nM; the IC50 (curve of first compound, second compound 0.1 µM) is 9750 nM; the half-inhibitory concentration (IC50) (curve of first compound, second compound 0.316 µM) is less than 31.6 nM; the IC50 (curve of first compound, second compound 1 µM) was less than 31.6 nM; the IC50 (curve of first compound, second compound 3.16 µM) is less than 31.6 nM; the IC50 (curve of first compound, second compound 10 µM) was less than 31.6 nM. Moreover, the viability, T/C (second compound 0.0316 µM, first compound 0.0316 µM) is 84.5%; the viability, T/C (second compound 0.0316 µM, first compound 0.1 µM) is 79.3%; the viability, T/C (second compound 0.0316 µM, first compound 0.316 µM) was 97.9%; the viability, T/C (second compound 0.0316 µM, first compound 1 µM) is 83%; the viability, T/C (second compound 0.0316 µM, first compound 3.16 µM) is 70.7%; the viability, T/C (second compound 0.0316 µM, first compound 10 µM) is 47.3%. The viability, T/C reads like this: (second compound 0.1 µM, first compound 0.0316 µM) 59.2%; (second compound 0.1 µM, first compound 0.1 µM) 86.9%; (second compound 0.1 µM, first compound 0.316 µM) 71.6%; (second compound 0.1 µM, first compound 1 µM) 59.3%; (second compound 0.1 µM, first compound 3.16 µM) 74.3%; (second compound 0.1 µM, first compound 10 µM) 49.5%. Besides, the viability, T/C by setting is: (second compound 0.316 µM, first compound 0.0316 µM) 54.5%; (second compound 0.316 µM, first compound 0.1 µM) 49.6%; (second compound 0.316 µM, first compound 0.316 µM) 43.3%; (second compound 0.316 µM, first compound 1 µM) 52.7%; (second compound 0.316 µM, first compound 3.16 µM) 73.5%; (second compound 0.316 µM, first compound 10 µM) 53.3%. Besides, the viability, T/C is, setting by setting: (second compound 1 µM, first compound 0.0316 µM) 42.8%; (second compound 1 µM, first compound 0.1 µM) 58%; (second compound 1 µM, first compound 0.316 µM) 51.3%; (second compound 1 µM, first compound 1 µM) 46.5%; (second compound 1 µM, first compound 3.16 µM) 53%; (second compound 1 µM, first compound 10 µM) 46%. Besides, the viability, T/C by setting is: (second compound 3.16 µM, first compound 0.0316 µM) 44.1%; (second compound 3.16 µM, first compound 0.1 µM) 50.6%; (second compound 3.16 µM, first compound 0.316 µM) 45.9%; (second compound 3.16 µM, first compound 1 µM) 45.1%; (second compound 3.16 µM, first compound 3.16 µM) 67.6%; (second compound 3.16 µM, first compound 10 µM) 60.3%. Besides, the viability, T/C (second compound 10 µM, first compound 0.0316 µM) was 48.1%; the viability, T/C (second compound 10 µM, first compound 0.1 µM) is 45.4%; the viability, T/C (second compound 10 µM, first compound 0.316 µM) is 40.8%; the viability, T/C (second compound 10 µM, first compound 1 µM) was 40.2%; the viability, T/C (second compound 10 µM, first compound 3.16 µM) is 46.5%; the viability, T/C (second compound 10 µM, first compound 10 µM) is 46.4%.
Take `Cc1cnc(CNC(=O)c2c(=O)c3ccc(N4CCCN(C)CC4)nc3n3c2sc2ccccc23)cn1`: the viability, T/C runs as follows: (compound 0.0316 µM) 83.9% [middle of 12 runs]; (compound 0.1 µM) 66% [middle of 12 runs]; (compound 1 µM) 53.7% [middle of 12 runs]; (compound 3.16 µM) 49.3% [middle of 12 runs]; (compound 10 µM) 46.9% [middle of 12 runs].
With `CCc1c2c(nc3ccc(O)cc13)-c1cc3c(c(=O)n1C2)COC(=O)[C@]3(O)CC`, the viability, T/C (compound 0.000999 µM) is 87% and 104% and 96.5%; the viability, T/C (compound 0.00316 µM) was 71.4% and 69.9% and 67.3%; the viability, T/C (compound 0.00999 µM) is 48% and 31.8% and 48.8%; the viability, T/C (compound 0.0316 µM) was 18.4% and 10.6% and 23.2%; the viability, T/C (compound 0.0999 µM) was 24.3% and 11.3% and 29.4%; the viability, T/C (compound 0.316 µM) was 24.9% and 13.8% and 31.8%. The IC50 (curve of compound) was 8.01 nM and 5.66 nM and 7.43 nM.
